From US9464082B2, “Aryl and arylalkyl substituted pyrazolyl and pyrimidinyl tricyclic enones as antioxidant inflammation modulators” (AbbVie Inc., priority 2014, dated 2016)

Each compound was assayed on IFNγ-Induced NO Production (assay: Nitric Oxide Suppression Assay (Suppression of IFNγ-Induced NO Production)). Details: RAW264.7; RAW 264.7 mouse macrophage cells; 2 hour pre-treatment with compound (3 μM to 0.3 nM, 10 point curve); 20 ng/mL interferon gamma, ~18 hour; Griess detection; n=2-3 in duplicates.
Type: cell-based
Description: RAW 264.7, a mouse macrophage cell line, was obtained from American Type Culture Collection (Manassas Va.) and maintained in the log phase of growth in Dulbecco's Modified Eagle's Medium (DMEM), 10% heat inactivated fetal calf serum and 100 units/mL antibiotic-antimycotic (AA). Cells were cultured and maintained in a humidified incubator at 37° C. under 5% CO2 and 95% air. Cells were sub-cultured every 3 days by scraping and were not used beyond passage 20. All cell culture supplies were obtained from Life Technologies (Grand Island, N.Y.).
RAW 264.7 cells were plated 1 day in advance of experiment at a concentration of 80,000 cells/well onto CellBIND® 96 well plates (Corning, N.Y.) in a total volume of 100 μL. The next day, pre-treat cells with compounds (from 3 μM to 0.3 nM serially diluted in a 10 point curve) from a 10× stock by adding 10 μL per well in complete DMEM media containing 10% fetal calf serum. The plates were centrifuged for 3 minutes at 400×g at room temperature followed by 2 hour incubation at 37° C. The cells were then incubated overnight at 37° C. with 10 μL of the insult, interferon gamma (R&D Systems, Minneapolis, Minn.), from a 10× stock for a final concentration of 20 ng/mL. The plates were centrifuged for 3 minutes at 400×g at room temperature followed by ˜18 hour incubation at 37° C. The following day, transfer 50 μL cell culture supernatant from each well into a clear bottom 96 well plate and follow the instructions from Promega's Griess Detection Kit #G2930 (Madison, Wis.) which involves the addition of 50 μL of the provided sulfanilamide solution for a 5-10 minute incubation at room temperature. Next add 50 μL of the provided N-1-napthylethylenediamine dihydrochloride (NED) solution for a 5-10 minute incubation at room temperature and protected from light. If any air bubbles were introduced into the well, the plates need to be centrifuged for 5 minutes at 400×g at room temperature to avoid interference with absorbance readings. The plates were read for absorbance within 30 minutes with a filter between 520 nm and 550 nm.
For the ability of compounds to suppress the increase in nitric oxide release, the percent maximal intensity of nitric oxide detected in each well was normalized to that induced by the peak value for 20 ng/mL of interferon gamma alone and plotted against the compound concentration to calculate IC50 values and to control for plate-to-plate variability. Concentration-response data were analyzed using GraphPad Prism (San Diego, Calif.); the IC50 values were derived from a single curve fit to the mean data of n=2-3, in duplicates.
All compounds were dissolved in dimethyl sulfoxide at 10 mM stock solutions and tested at a concentration that the dimethyl sulfoxide levels never exceeded 1%.

Question: For `C[C@@H]1C(=O)C(C(N)=O)=C[C@]2(Cc3ccccc3)c3nn(C)c(-c4ccccc4)c3CC[C@@H]12` (racemic) [Example 165, rac-(5aS,6S,9aR)-9a-benzyl-2,6-dimethyl-7-oxo-3-phenyl-4,5,5a,6,7,9a-hexahydro-2H-benzo[g]indazole-8-carboxamide], which IC50 is on record?
Answer: 706 nM

Question: How did the IC50 turn out when `C[C@@H]1C(=O)C(C#N)=C[C@]2(c3ccccc3)c3nn(Cc4ccccc4)cc3CC[C@@H]12` (single isomer, unassigned) [Example 56] was run?
Answer: 93.2 nM

Question: `C[C@@H]1C(=O)C(C#N)=C[C@]2(c3ccccc3)c3c(cnn3Cc3ccccc3)CC[C@@H]12` (single isomer, unassigned) [Example 57] was tested. Which IC50 did it give?
Answer: 22 nM

Question: Which IC50 does the source give for `C[C@@H]1C(=O)C(C#N)=C[C@]2(c3ccccc3)c3ncncc3CC[C@@H]12` [Example 1, (6aS,7S,10aR)-7-methyl-8-oxo-10a-phenyl-5,6,6a,7,8,10a-hexahydrobenzo[h]quinazoline-9-carbonitrile] here?
Answer: 5.35 nM

Question: Which IC50 does the source give for `COc1ccccc1-c1nc(OC)c2c(n1)[C@@]1(c3ccccc3)C=C(C#N)C(=O)[C@@H](C)[C@@H]1CC2` [Example 10, (6aS,7S,10aR)-4-methoxy-2-(2-methoxyphenyl)-7-methyl-8-oxo-10a-phenyl-5,6,6a,7,8,10a-hexahydrobenzo[h]quinazoline-9-carbonitrile] here?
Answer: 22.5 nM

Question: `C[C@@H]1C(=O)C(C#N)=C[C@]2(c3ccccc3)c3nc(-c4cccnc4)ncc3CC[C@@H]12` [Example 11, (6aS,7S,10aR)-7-methyl-8-oxo-10a-phenyl-2-(pyridin-3-yl)-5,6,6a,7,8,10a-hexahydrobenzo[h]quinazoline-9-carbonitrile] was tested. Which IC50 did it give?
Answer: 6.03 nM

Question: `CCNc1ncc2c(n1)[C@@]1(c3ccccc3)C=C(C#N)C(=O)[C@@H](C)[C@@H]1CC2` [Example 12, (6aS,7S,10aR)-2-(ethylamino)-7-methyl-8-oxo-10a-phenyl-5,6,6a,7,8,10a-hexahydrobenzo[h]quinazoline-9-carbonitrile] was tested. Which IC50 did it give?
Answer: 24.1 nM

Question: `COc1nc(C)nc2c1CC[C@H]1[C@H](C)C(=O)C(C#N)=C[C@]21c1ccccc1` [Example 13, (6aS,7S,10aR)-4-methoxy-2,7-dimethyl-8-oxo-10a-phenyl-5,6,6a,7,8,10a-hexahydrobenzo[h]quinazoline-9-carbonitrile] was tested. Which IC50 did it give?
Answer: 4.8 nM

Question: With `COc1nc(Nc2ccccc2)nc2c1CC[C@H]1[C@H](C)C(=O)C(C#N)=C[C@]21c1ccccc1` [Example 14, (6aS,7S,10aR)-2-anilino-4-methoxy-7-methyl-8-oxo-10a-phenyl-5,6,6a,7,8,10a-hexahydrobenzo[h]quinazoline-9-carbonitrile] as the compound, how does the IC50 read?
Answer: 11.4 nM

Question: How did the IC50 turn out when `COc1nc(Nc2ccc(Br)cc2)nc2c1CC[C@H]1[C@H](C)C(=O)C(C#N)=C[C@]21c1ccccc1` [Example 15, (6aS,7S,10aR)-2-[(4-bromophenyl)amino]-4-methoxy-7-methyl-8-oxo-10a-phenyl-5,6,6a,7,8,10a-hexahydrobenzo[h]quinazoline-9-carbonitrile] was run?
Answer: 30 nM

Question: For `C[C@@H]1C(=O)C(C#N)=C[C@]2(c3ccccc3)c3nc(Nc4ccccc4)nc(-c4cncnc4)c3CC[C@@H]12` [Example 16, (6aS,7S,10aR)-2-anilino-7-methyl-8-oxo-10a-phenyl-4-(pyrimidin-5-yl)-5,6,6a,7,8,10a-hexahydrobenzo[h]quinazoline-9-carbonitrile], which IC50 is on record?
Answer: 7.8 nM

Question: For `Cc1nc(-c2cncn2C)c2c(n1)[C@@]1(c3ccccc3)C=C(C#N)C(=O)[C@@H](C)[C@@H]1CC2` [Example 17, (6aS,7S,10aR)-2,7-dimethyl-4-(1-methyl-1H-imidazol-5-yl)-8-oxo-10a-phenyl-5,6,6a,7,8,10a-hexahydrobenzo[h]quinazoline-9-carbonitrile], which IC50 is on record?
Answer: 3.25 nM

Question: Which IC50 does the source give for `Cc1nc(-c2cnc(C)s2)c2c(n1)[C@@]1(c3ccccc3)C=C(C#N)C(=O)[C@@H](C)[C@@H]1CC2` [Example 18, (6aS,7S,10aR)-2,7-dimethyl-4-(2-methyl-1,3-thiazol-5-yl)-8-oxo-10a-phenyl-5,6,6a,7,8,10a-hexahydrobenzo[h]quinazoline-9-carbonitrile] here?
Answer: 5.17 nM

Question: `C[C@@H]1C(=O)C(C#N)=C[C@]2(c3ccccc3)c3nc(N4CCOCC4)ncc3CC[C@@H]12` [Example 19, (6aS,7S,10aR)-7-methyl-2-(morpholin-4-yl)-8-oxo-10a-phenyl-5,6,6a,7,8,10a-hexahydrobenzo[h]quinazoline-9-carbonitrile] was tested. Which IC50 did it give?
Answer: 36.2 nM

Question: How did the IC50 turn out when `Cc1nc(O)c2c(n1)[C@@]1(c3ccccc3)C=C(C#N)C(=O)[C@@H](C)[C@@H]1CC2` [Example 20, (6aS,7S,10aR)-4-hydroxy-2,7-dimethyl-8-oxo-10a-phenyl-5,6,6a,7,8,10a-hexahydrobenzo[h]quinazoline-9-carbonitrile] was run?
Answer: 45 nM

Question: With `Cc1nc(-c2ccccc2)c2c(n1)[C@@]1(c3ccccc3)C=C(C#N)C(=O)[C@@H](C)[C@@H]1CC2` [Example 21, (6aS,7S,10aR)-2,7-dimethyl-8-oxo-4,10a-diphenyl-5,6,6a,7,8,10a-hexahydrobenzo[h]quinazoline-9-carbonitrile] as the compound, how does the IC50 read?
Answer: 9.94 nM

Question: For `Cc1nc(-c2cncnc2)c2c(n1)[C@@]1(c3ccccc3)C=C(C#N)C(=O)[C@@H](C)[C@@H]1CC2` [Example 22, (6aS,7S,10aR)-2,7-dimethyl-8-oxo-10a-phenyl-4-(pyrimidin-5-yl)-5,6,6a,7,8,10a-hexahydrobenzo[h]quinazoline-9-carbonitrile], which IC50 is on record?
Answer: 31.8 nM

Question: For `Cc1nc(-c2ccoc2)c2c(n1)[C@@]1(c3ccccc3)C=C(C#N)C(=O)[C@@H](C)[C@@H]1CC2` [Example 23, (6aS,7S,10aR)-4-(3-furyl)-2,7-dimethyl-8-oxo-10a-phenyl-5,6,6a,7,8,10a-hexahydrobenzo[h]quinazoline-9-carbonitrile], which IC50 is on record?
Answer: 6.98 nM

Question: For `C[C@@H]1C(=O)C(C#N)=C[C@]2(c3ccccc3)c3n[nH]cc3CC[C@@H]12` [Example 24, (5aS,6S,9aR)-6-methyl-7-oxo-9a-phenyl-4,5,5a,6,7,9a-hexahydro-2H-benzo[g]indazole-8-carbonitrile], which IC50 is on record?
Answer: 67.7 nM

Question: With `COc1nc(-c2ccccc2F)nc2c1CC[C@H]1[C@H](C)C(=O)C(C#N)=C[C@]21c1ccccc1` [Example 25, (6aS,7S,10aR)-2-(2-fluorophenyl)-4-methoxy-7-methyl-8-oxo-10a-phenyl-5,6,6a,7,8,10a-hexahydrobenzo[h]quinazoline-9-carbonitrile] as the compound, how does the IC50 read?
Answer: 37.8 nM

Question: How did the IC50 turn out when `C[C@@H]1C(=O)C(C#N)=C[C@]2(c3ccccc3)c3c(c(-c4cccnc4)nn3C)CC[C@@H]12` [Example 26, (5aS,6S,9aR)-1,6-dimethyl-7-oxo-9a-phenyl-3-(pyridin-3-yl)-4,5,5a,6,7,9a-hexahydro-1H-benzo[g]indazole-8-carbonitrile] was run?
Answer: 1.3 nM

Question: Which IC50 does the source give for `Cc1nc(-c2ccncc2)c2c(n1)[C@@]1(c3ccccc3)C=C(C#N)C(=O)[C@@H](C)[C@@H]1CC2` [Example 27, (6aS,7S,10aR)-2,7-dimethyl-8-oxo-10a-phenyl-4-(pyridin-4-yl)-5,6,6a,7,8,10a-hexahydrobenzo[h]quinazoline-9-carbonitrile] here?
Answer: 5.9 nM

Question: For `CC(=O)n1cc2c(n1)[C@@]1(c3ccccc3)C=C(C#N)C(=O)[C@@H](C)[C@@H]1CC2` [Example 28, (5aS,6S,9aR)-2-acetyl-6-methyl-7-oxo-9a-phenyl-4,5,5a,6,7,9a-hexahydro-2H-benzo[g]indazole-8-carbonitrile], which IC50 is on record?
Answer: 39 nM
